Source: PubChem BioAssay (NCI)
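Interpolation was linear, between the two tested concentrations surrounding the appropriate level; five concentrations were tested over 48 hours in 96-well plates. The concentration for 50% growth inhibition is given as GI50. TGI marks complete inhibition of growth.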

Columns and labels:
Test in all cases: NCI-60 cell line screen, 48 h
MCF7 breast = test system: MCF7 breast
NCI-H522 lung = test system: NCI-H522 lung
SNB-75 CNS = test system: SNB-75 CNS
OVCAR-8 ovarian = test system: OVCAR-8 ovarian
MOLT-4 leukemia = test system: MOLT-4 leukemia
A549 NSCLC = test system: A549 NSCLC
SW-620 colon = test system: SW-620 colon
NCI-H460 lung = test system: NCI-H460 lung
NCI/ADR-RES ovarian = test system: NCI/ADR-RES ovarian
SK-MEL-28 melanoma = test system: SK-MEL-28 melanoma
SF-295 CNS = test system: SF-295 CNS
BT-549 breast = test system: BT-549 breast
MALME-3M melanoma = test system: MALME-3M melanoma
KM12 colon = test system: KM12 colon
SNB-19 CNS = test system: SNB-19 CNS
OVCAR-5 ovarian = test system: OVCAR-5 ovarian
HS 578T breast = test system: HS 578T breast
SK-MEL-2 melanoma = test system: SK-MEL-2 melanoma
CCRF-CEM leukemia = test system: CCRF-CEM leukemia
HOP-92 NSCLC = test system: HOP-92 NSCLC
T-47D breast = test system: T-47D breast
SN12C renal = test system: SN12C renal
HOP-62 NSCLC = test system: HOP-62 NSCLC
HL-60(TB) leukemia = test system: HL-60(TB) leukemia
HCC-2998 colon = test system: HCC-2998 colon
UO-31 renal = test system: UO-31 renal
HCT-15 colon = test system: HCT-15 colon
PC-3 prostate = test system: PC-3 prostate
ACHN renal = test system: ACHN renal
786-0 renal = test system: 786-0 renal
COLO 205 colon = test system: COLO 205 colon
OVCAR-4 ovarian = test system: OVCAR-4 ovarian
MDA-MB-231 breast = test system: MDA-MB-231 breast
UACC-257 melanoma = test system: UACC-257 melanoma
MDA-MB-435 = test system: MDA-MB-435
NCI-H23 lung = test system: NCI-H23 lung
RPMI-8226 leukemia = test system: RPMI-8226 leukemia
SF-268 CNS = test system: SF-268 CNS
CAKI-1 renal = test system: CAKI-1 renal
HCT-116 colon = test system: HCT-116 colon
SF-539 CNS = test system: SF-539 CNS
OVCAR-3 ovarian = test system: OVCAR-3 ovarian
EKVX NSCLC = test system: EKVX NSCLC
LOX IMVI melanoma = test system: LOX IMVI melanoma
U251 CNS = test system: U251 CNS
SK-MEL-5 melanoma = test system: SK-MEL-5 melanoma
HT29 colon = test system: HT29 colon
SR leukemia = test system: SR leukemia
A498 renal = test system: A498 renal
M14 melanoma = test system: M14 melanoma
K-562 leukemia = test system: K-562 leukemia
DU-145 prostate = test system: DU-145 prostate
SK-OV-3 ovarian = test system: SK-OV-3 ovarian
UACC-62 melanoma = test system: UACC-62 melanoma
TK-10 renal = test system: TK-10 renal
RXF 393 renal = test system: RXF 393 renal
IGROV1 ovarian = test system: IGROV1 ovarian
NCI-H226 lung = test system: NCI-H226 lung
MDA-N = test system: MDA-N

## O=c1c(Br)ccc(Br)cc1Br
MCF7 breast
  GI50: 3.81 µM
  TGI: 77.6 µM
NCI-H522 lung
  GI50: 0.17 µM
  TGI: 0.364 µM
SNB-75 CNS
  GI50: 1.83 µM
  TGI: 4.24 µM
OVCAR-8 ovarian
  GI50: 2.75 µM
  TGI: 8.78 µM
MOLT-4 leukemia
  GI50: 0.41 µM
  TGI: 1.86 µM
A549 NSCLC
  GI50: 9.02 µM
  TGI: 31.8 µM
SW-620 colon
  GI50: 0.268 µM
  TGI: 0.673 µM
NCI-H460 lung
  GI50: 4.88 µM
  TGI: 11.5 µM
NCI/ADR-RES ovarian
  GI50: 2.56 µM
  TGI: 7.16 µM
SK-MEL-28 melanoma
  GI50: 2.55 µM
  TGI: 5.83 µM
SF-295 CNS
  GI50: 8.01 µM
  TGI: 22.4 µM
BT-549 breast
  GI50: 2.08 µM
  TGI: 3.98 µM
MALME-3M melanoma
  GI50: 1.85 µM
  TGI: 4.05 µM
KM12 colon
  GI50: 2.64 µM
  TGI: 6.36 µM
SNB-19 CNS
  GI50: 11.7 µM
  TGI: 25.2 µM
OVCAR-5 ovarian
  GI50: 1.76 µM
  TGI: 3.46 µM
HS 578T breast
  GI50: 3.44 µM
  TGI: 23.1 µM
SK-MEL-2 melanoma
  GI50: 2.39 µM
  TGI: 5.85 µM
CCRF-CEM leukemia
  GI50: 0.317 µM
  TGI: 1.58 µM
HOP-92 NSCLC
  GI50: 1.53 µM
  TGI: 3.05 µM
T-47D breast
  GI50: 0.744 µM
  TGI: 3.71 µM
SN12C renal
  GI50: 2.11 µM
  TGI: 4.68 µM
HOP-62 NSCLC
  GI50: 2.38 µM
  TGI: 5.58 µM
HL-60(TB) leukemia
  GI50: 0.662 µM
  TGI: 2.67 µM
HCC-2998 colon
  GI50: 3.07 µM
  TGI: 8.6 µM
UO-31 renal
  GI50: 1.51 µM
  TGI: 2.95 µM
HCT-15 colon
  GI50: 0.752 µM
  TGI: 2.48 µM
PC-3 prostate
  GI50: 1.85 µM
  TGI: 3.95 µM
ACHN renal
  GI50: 1.26 µM
  TGI: 2.53 µM
786-0 renal
  GI50: 2.07 µM
  TGI: 3.7 µM
COLO 205 colon
  GI50: 0.216 µM
  TGI: 0.442 µM
OVCAR-4 ovarian
  GI50: 2.47 µM
  TGI: 4.63 µM
MDA-MB-231 breast
  GI50: 1.99 µM
  TGI: 3.68 µM
UACC-257 melanoma
  GI50: 1.91 µM
  TGI: 3.49 µM
MDA-MB-435
  GI50: 1.85 µM
  TGI: 4.38 µM
NCI-H23 lung
  GI50: 1.72 µM
  TGI: 3.66 µM
RPMI-8226 leukemia
  GI50: 0.532 µM
  TGI: 2.89 µM
SF-268 CNS
  GI50: 2.62 µM
  TGI: 6.57 µM
CAKI-1 renal
  GI50: 1.7 µM
  TGI: 3.32 µM
HCT-116 colon
  GI50: 1.51 µM
  TGI: 2.88 µM
SF-539 CNS
  GI50: 1.92 µM
  TGI: 4.52 µM
OVCAR-3 ovarian
  GI50: 0.926 µM
  TGI: 2.18 µM
EKVX NSCLC
  GI50: 1.71 µM
  TGI: 3.39 µM
LOX IMVI melanoma
  GI50: 0.897 µM
  TGI: 2.35 µM
U251 CNS
  GI50: 1.84 µM
  TGI: 3.34 µM
SK-MEL-5 melanoma
  GI50: 3.19 µM
  TGI: 10.9 µM
HT29 colon
  GI50: 1.77 µM
  TGI: 4.45 µM
SR leukemia
  GI50: 0.367 µM
  TGI: 1.48 µM
A498 renal
  GI50: 14.7 µM
  TGI: 28.5 µM
M14 melanoma
  GI50: 1.48 µM
  TGI: 2.91 µM
K-562 leukemia
  GI50: 0.527 µM
  TGI: 3.64 µM
DU-145 prostate
  GI50: 1.75 µM
  TGI: 3.14 µM
SK-OV-3 ovarian
  GI50: 15.7 µM
  TGI: 29.2 µM
UACC-62 melanoma
  GI50: 1.75 µM
  TGI: 3.27 µM
TK-10 renal
  GI50: 1.55 µM
  TGI: 5.23 µM
RXF 393 renal
  GI50: 1.65 µM
  TGI: 3.06 µM
IGROV1 ovarian
  GI50: 2.4 µM
  TGI: 5.64 µM
NCI-H226 lung
  GI50: 2.94 µM
  TGI: 9.7 µM

## CN(CC(=O)O)Cc1c[nH]c2ccccc12
MCF7 breast
  TGI: > 100 µM
NCI-H522 lung
  TGI: > 100 µM
SNB-75 CNS
  TGI: > 100 µM
OVCAR-8 ovarian
  TGI: > 100 µM
MOLT-4 leukemia
  TGI: > 100 µM
A549 NSCLC
  TGI: > 100 µM
SW-620 colon
  TGI: > 100 µM
NCI-H460 lung
  TGI: > 100 µM
NCI/ADR-RES ovarian
  TGI: > 100 µM
SK-MEL-28 melanoma
  TGI: > 100 µM
SF-295 CNS
  TGI: > 100 µM
BT-549 breast
  TGI: > 100 µM
MALME-3M melanoma
  TGI: > 100 µM
KM12 colon
  TGI: > 100 µM
SNB-19 CNS
  TGI: > 100 µM
OVCAR-5 ovarian
  TGI: > 100 µM
HS 578T breast
  TGI: > 100 µM
SK-MEL-2 melanoma
  TGI: > 100 µM
CCRF-CEM leukemia
  TGI: > 100 µM
HOP-92 NSCLC
  TGI: > 100 µM
SN12C renal
  TGI: > 100 µM
HOP-62 NSCLC
  TGI: > 100 µM
HL-60(TB) leukemia
  TGI: > 100 µM
UO-31 renal
  TGI: > 100 µM
HCT-15 colon
  TGI: > 100 µM
PC-3 prostate
  TGI: > 100 µM
ACHN renal
  TGI: > 100 µM
786-0 renal
  TGI: > 100 µM
COLO 205 colon
  TGI: > 100 µM
OVCAR-4 ovarian
  TGI: > 100 µM
MDA-MB-231 breast
  TGI: > 100 µM
UACC-257 melanoma
  TGI: > 100 µM
MDA-MB-435
  TGI: > 100 µM
NCI-H23 lung
  TGI: > 100 µM
RPMI-8226 leukemia
  TGI: > 100 µM
SF-268 CNS
  TGI: > 100 µM
CAKI-1 renal
  TGI: > 100 µM
HCT-116 colon
  TGI: > 100 µM
SF-539 CNS
  TGI: > 100 µM
OVCAR-3 ovarian
  TGI: > 100 µM
EKVX NSCLC
  TGI: > 100 µM
LOX IMVI melanoma
  TGI: > 100 µM
U251 CNS
  TGI: > 100 µM
SK-MEL-5 melanoma
  TGI: > 100 µM
HT29 colon
  TGI: > 100 µM
SR leukemia
  TGI: > 100 µM
A498 renal
  TGI: > 100 µM
M14 melanoma
  TGI: > 100 µM
K-562 leukemia
  TGI: > 100 µM
MDA-N
  TGI: > 100 µM
DU-145 prostate
  TGI: > 100 µM
SK-OV-3 ovarian
  TGI: > 100 µM
UACC-62 melanoma
  TGI: > 100 µM
TK-10 renal
  TGI: > 100 µM
RXF 393 renal
  TGI: > 100 µM
IGROV1 ovarian
  TGI: > 100 µM
NCI-H226 lung
  TGI: > 100 µM
